In US20260007644A1, “NIMODIPINE COMPOSITION FREE OF ETHANOL AND PHOSPHOLIPID FOR MOIST HEAT STERILIZATION AND METHOD FOR PREPARING SAME” (BEIJING DELIVERY PHARMACEUTICAL TECHNOLOGY CO., LTD, priority 2022, published 2026):

What was measured:
[1] = cited from earlier work
[2] = Description / appearance of the concentrates (visual inspection); assay type: physicochemical; conditions: 1.00 g active ingredient, HS15 45.00 g, propylene glycol 54.00 g, sterilized at 121° C. for 15 minutes
Experimental: The formation of solution upon dilution with 5% dextrose injection and the stability of the diluted solutions (the concentration of nimodipine is 0.1 mg/mL) were observed.
According to the Guidelines for the Stability Testing of Drug Substances and Preparations in Section 9001 of the General Notices, Pharmacopoeia of the People's Republic of China 2020, Volume IV, the concentrates prepared in Example 10 were tested at a temperature of 60° C. or under the light with an intensity of 5000 Lux, and sampled at the end of the 5th, 10th and 30th days to examine the specified items. • 1.
Method: visual inspection.

| Compound | solubility in water [1] | formation of a clear and transparent solution in the system of HS15 and propylene glycol [2] |
| --- | --- | --- |
| COCCOC(=O)C1=C(C)NC(C)=C(C(=O)OC(C)C)C1c1cccc([N+](=O)[O-])c1 (racemic) [Nimodipine, 1-methylethyl 2-methoxyethyl (±)-2,6-dimethyl-4-(3-nitrophenyl)-1,4-dihydropyridine-3,5-dicarboxylate] | insoluble in water | – |
| ginsenoside | – | failed to form clear and transparent solutions |
| C=C1CC[C@@H]2[C@](C)(CO)[C@H](O)CC[C@@]2(C)[C@@H]1C/C=C1/C(=O)OC[C@H]1O [andrographolide] | – | failed to form clear and transparent solutions |
| COc1cc([C@@H]2c3cc4c(cc3[C@@H](O[C@@H]3O[C@@H]5CO[C@@H](c6cccs6)O[C@H]5[C@H](O)[C@H]3O)[C@H]3COC(=O)[C@H]23)OCO4)cc(OC)c1O [teniposide] | – | failed to form clear and transparent solutions |
| CC[C@@H]([C@H](C)O)n1ncn(-c2ccc(N3CCN(c4ccc(OC[C@@H]5CO[C@@](Cn6cncn6)(c6ccc(F)cc6F)C5)cc4)CC3)cc2)c1=O [posaconazole] | – | failed to form clear and transparent solutions |
